Measured values as given in patent US11311014B2, “Crystalline forms of ethyl[3-[2-chloro-4-fluoro-5-(1-methyl-6-trifluoromethyl-2,4-dioxo-1,2,3,4-tetrahydropyrimidin-3-yl)phenoxy]-2-pyridyloxy]acetate” (BASF SE, priority 2017, dated 2022).

Columns and labels:
[1] = Stability of modifications suspended in solvent (conversion of crystal modification); assay type: physicochemical
Protocol: (§1) Studies on the Stability of the modifications of compound of formula (I)
A mixture of forms A and B was suspended in ethanol at 25° C.
Form C.II.1 (consisting of 30 wt. % of form A and 70 wt. % of form D) was suspended in ethanol at 25° C.
Form C.II.1 (consisting of 30 wt. % of form A and 70 wt. % of form D) was suspended in iso-propanol at 25° C.
Form CII.1 (consisting of 30 wt. % of form A and 70 wt. % of form D) was suspended in iso-propanol at 50° C.

[2] = Storage stability of dry powder at room temperature (conversion of crystal modification); assay type: physicochemical; conditions: about 6 weeks
Excerpt: as §1

## CCOC(=O)COc1ncccc1Oc1cc(-n2c(=O)cc(C(F)(F)F)n(C)c2=O)c(F)cc1Cl [Form C.II.1]
[1]; suspended in ethanol at 25° C., after 7 days
  Stability of the modification: phase conversion in suspension: converted into form A
[1]; suspended in iso-propanol at 25° C., after 7 days
  Stability of the modification: phase conversion in suspension: converted into form A
[1]; suspended in iso-propanol at 50° C., after 7 days
  Stability of the modification: phase conversion in suspension: converted into form A

## CCOC(=O)COc1ncccc1Oc1cc(-n2c(=O)cc(C(F)(F)F)n(C)c2=O)c(F)cc1Cl [form B, ethyl[3-[2-chloro-4-fluoro-5-(1-methyl-6-trifluoromethyl-2,4-dioxo-1,2,3,4-tetrahydropyrimidin-3-yl)phenoxy]-2-pyridyloxy]acetate]
[2]
  Stability of the modification: phase conversion during storage: converts partially into form A

## CCOC(=O)COc1ncccc1Oc1cc(-n2c(=O)cc(C(F)(F)F)n(C)c2=O)c(F)cc1Cl [mixture of forms A and B]
[1]; suspended in ethanol at 25° C., after 5 days
  Stability of the modification: phase conversion in suspension: converted into form A
